Experimental data reported in patent US6653081B2, “Methods for monitoring antiretroviral therapy and guiding therapeutic decision in the treatment of HIV/AIDS” (ViroLogic, Inc., priority 2000, dated 2003).
“And” between values parts separate entries of the source, which are not always exact repeats. Equal values may be shown once.

Tests used:
RTV-K103N/I135T/V245T = assay: Phenotypic susceptibility assay, RTV-K103N/I135T/V245T; assay type: cell-based, HIV-1; conditions: site-directed K103N + I135T + V245T
Source text: (§1) The resistance test vectors containing a functional luciferase gene cassette were constructed and host cells were transfected with the resistance test vector DNA. The resistant test vectors contained patient-derived reverse transcriptase and protease sequences that were either susceptible or resistant to the antiretroviral agents, such as nucleoside reverse transcriptase inhibitors, (NRTIs) non-nucleoside reverse transcriptase inhibitors […] protease inhibitors. The resistance test vector viral particles produced by transfecting the resistance test vector DNA into host cells, either in the presence or absence of PRIs, were used to infect target host cells grown either in the absence of NRTIs or NNRTIs, or in the presence of increasing concentrations of the drug. The amount of luciferase activity produced in infected target host cells in the presence of varying concentrations of drug was compared to the amount of luciferase produced in infected target host cells in the absence of drug. “Drug resistance” was measured as the amount of drug required to inhibit by 50% the luciferase activity detected in the absence of drug (inhibitory concentration 50%, IC50). The IC50 values were determined by plotting percent drug inhibition vs. log10 drug concentration. Stimulation of viral replication was measured as the percent increase in luciferase activity detected when infection occurs in the presence of drug as compared to in the absence of drug.
(§2) Host cells were seeded in 10-cm-diameter dishes and were transfected several days after plating with resistance test vector plasmid DNA and the envelope expression vector. Transfections were performed using a calcium-phosphate precipitation procedure. The cell culture media containing the DNA precipitate was replaced with fresh medium, from one to 24 hours, after transfection. Cell culture media containing resistance test vector viral particles was harvested one to four days after transfection and was passed through a […] filter before being used to infect target host cells, or being stored at −80° C. HIV capsid protein (p24) levels in the harvested cell culture media were determined by an EIA method as described by the manufacturer (SAIC; Frederick, Md.). Before infection, target cells (293 and 293/T) were plated in cell culture media. Control infections were performed using cell culture media from mock transfections (no DNA) or transfections containing the resistance test vector plasmid DNA without the envelope expression plasmid. One to three or more days after infection, the media was removed and cell lysis buffer (Promega) was added to each well. Cell lysates were assayed for luciferase activity (FIG. 3). The inhibitory effect of the drug was determined using the following equation:
(§3) % luciferase inhibition=1−(RLUluc[drug]÷RLUluc)×100
(§4) where RLUluc [drug] is the Relative Light Unit of luciferase activity in infected cells in the presence of drug, and RLUluc is the Relative Light Unit of luciferase activity in infected cells in the absence of drug. IC50values were obtained from the sigmoidal curves that were generated from the data by plotting the percent inhibition of luciferase activity vs. the log10 drug concentration. The percent luciferase stimulation is the negative of the % inhibition calculated using the formula above.
A resistance test vector containing three mutations, K103N, I135T and V245T (RTV-K103N/I135T/V245T) was constructed and tested in the phenotypic assay described earlier. The results were compared to those determined using a genetically defined resistance test vector that was wild type at positions 103, 135 and 245. We determined the pattern of phenotypic susceptibility to the NNRTIs, delavirdine, nevirapine and efavirenz, in RTV-K103N.

RTV-012090 = assay: Phenotypic susceptibility assay, RTV-012090; assay type: cell-based, HIV; conditions: patient CCTG-1025, week 48; for decrease in susceptibility: K101E, K103N, G190S, M230L
Source text: as §1, §2, §3, §4
Resistance test vectors were constructed as described in Example 1 from virus samples obtained from an individual patient at two separate time points over a 48-week period. […]

[1] = test system: Patient-derived resistance test vectors containing mutations at 241 in addition to other NNRTI-resistance mutations; assay: Phenotypic susceptibility assay, patient-derived RTVs with mutations at 241; assay type: cell-based, HIV; conditions: 241 plus e.g. 101, 103, 106, 135, 138, 190
Source text: The resistance test vectors containing a functional luciferase gene cassette were constructed and host cells were transfected with the resistance test vector DNA. The resistant test vectors contained patient-derived reverse transcriptase and protease sequences that were either susceptible or resistant to the antiretroviral agents, such as nucleoside reverse transcriptase inhibitors, (NRTIs) non-nucleoside reverse transcriptase inhibitors (NRTIs) and protease inhibitors. […] The IC50 values were determined by plotting percent drug inhibition vs. log10 drug concentration. Stimulation of viral replication was measured as the percent increase in luciferase activity detected when infection occurs in the presence of drug as compared to in the absence of drug.
Host cells were seeded in 10-cm-diameter dishes and were transfected several days after plating with resistance test vector plasmid DNA and the envelope expression vector. […] HIV capsid protein (p24) levels in the harvested cell culture media were determined by an EIA method as described by the manufacturer (SAIC; Frederick, Md.). […] The inhibitory effect of the drug was determined using the following equation: […]

RTV-V241S = assay: Phenotypic susceptibility assay, RTV-V241S; assay type: cell-based, HIV-1; conditions: site-directed V241S alone
Source text: as §1, §2, §3, §4
A resistance test vector containing all of the mutations present in RTV-011073 except for the V241S and the T277K was constructed and tested using the phenotypic assay described earlier. The results were compared to those determined using the parent RTV-011073. We determined the pattern of phenotypic susceptibility to the NNRTIs, delavirdine, nevirapine and efavirenz, in the reverted vector RTV-011073/241V/277T. […] A resistance test vector containing all of the mutations present in RTV-011073 except for the V241S was constructed and tested using the phenotypic assay described earlier. The results were compared to those determined using the parent RTV-011073. […]

[2] = test system: RTV-1033-3/106V/189V/227F; assay: Phenotypic susceptibility assay, RTV-1033-3/106V/189V/227F; assay type: cell-based, HIV; conditions: RTV-1033-3 with V106A, V189L and F227L reverted
Source text: as §1, §2, §3, §4
A resistance test vector containing all of the mutations present in RTV-1033-3 except for V106A, V189L and F227L (RTV-1033-3/106V/189V/227F) was constructed and tested using the phenotypic assay described earlier. The results were compared to those determined using the parent RTV-1033-3. We determined the pattern of phenotypic susceptibility to the NNRTIs, delavirdine, nevirapine and efavirenz, in the reverted vector, RTV-1033-3/106V/189V/227F.

codon 181 mutant HIV-1 = conditions: cited from earlier work
P236L substitution RT = P236L substitution RT (Human immunodeficiency virus type 1 group M subtype B, UniProt P04585, P823L); conditions: cited from earlier work
viral load = assay: Viral load measurements in patient (Example 14); assay type: in vivo

Structure (SMILES): O=C1Nc2ccc(Cl)cc2[C@@](C#CC2CC2)(C(F)(F)F)O1 [efavirenz]
- drug-dependent stimulation of viral replication (RTV-K103N/I135T/V245T): ~25%
- reductions in susceptibility compared to wild type control RTV (RTV-K103N/I135T/V245T): 174 fold
- drug-dependent stimulation of viral replication (RTV-012090): ~40%
- decrease in susceptibility (RTV-012090): > 450 fold
- reductions in susceptibility [1]: > 470 fold
- drug-dependent stimulation of viral replication (RTV-V241S): no drug-dependent stimulation
- reductions in susceptibility compared to wild type control RTV (RTV-V241S): 3 fold
- drug-dependent stimulation of viral replication [2]: ~30%
- reductions in susceptibility compared to wild type control RTV [2]: 2 fold
- susceptibility / activity in the presence of the Y181C mutation (codon 181 mutant HIV-1): retains activity

Structure (SMILES): CC(C)Nc1cccnc1N1CCN(C(=O)c2cc3cc(NS(C)(=O)=O)ccc3[nH]2)CC1 [delavirdine]
- drug-dependent stimulation of viral replication (RTV-K103N/I135T/V245T): ~50%
- reductions in susceptibility compared to wild type control RTV (RTV-K103N/I135T/V245T): > 250 fold
- drug-dependent stimulation of viral replication (RTV-012090): ~30%
- decrease in susceptibility (RTV-012090): 144 fold
- drug-dependent stimulation of viral replication (RTV-V241S): ~25%
- reductions in susceptibility compared to wild type control RTV (RTV-V241S): 6 fold
- drug-dependent stimulation of viral replication [2]: ~35%
- reductions in susceptibility compared to wild type control RTV [2]: 2.7 fold

Structure (SMILES): Cc1ccnc2c1NC(=O)c1cccnc1N2C1CC1 [nevirapine]
- drug-dependent stimulation of viral replication (RTV-K103N/I135T/V245T): ~40%
- reductions in susceptibility compared to wild type control RTV (RTV-K103N/I135T/V245T): 594 fold and 544 fold
- drug-dependent stimulation of viral replication (RTV-012090): ~80%
- decrease in susceptibility (RTV-012090): > 600 fold
- reductions in susceptibility [1]: > 600 fold
- reduction of the IC50 (P236L substitution RT): 7- to 10 fold
- drug-dependent stimulation of viral replication (RTV-V241S): ~30%
- reductions in susceptibility compared to wild type control RTV (RTV-V241S): 9 fold
- drug-dependent stimulation of viral replication [2]: ~40%
- reductions in susceptibility compared to wild type control RTV [2]: 2.8 fold
- viral load after removal of nevirapine from the regimen (viral load; patient on d4T, nevirapine, nelfinavir, saquinavir, baseline ~1,200,000 copies/ml): < 300,000 copies/ml
- reduction in viral load after removal of nevirapine from the regimen (viral load; same patient): 4 fold
- reduction in sensitivity (codon 181 mutant HIV-1; Y181C mutation): 100 fold
